Measurements taken from patent publication US6084081A, “Lewis X derivatives” (Daikin Industries, Ltd., priority 1996, dated 2000).

Legend:
α-fucosidase = molecular target: T1, α-fucosidase (Bos taurus, UniProt Q2KIM0); experiment: Metabolic stability test: substrate decomposition reaction by α-fucosidase (remaining substrate by TLC); assay type: in vitro ADME
T1 construct: purchased Wako Pure Chemical Industries, Ltd
T1 sequence (Q2KIM0 23-468): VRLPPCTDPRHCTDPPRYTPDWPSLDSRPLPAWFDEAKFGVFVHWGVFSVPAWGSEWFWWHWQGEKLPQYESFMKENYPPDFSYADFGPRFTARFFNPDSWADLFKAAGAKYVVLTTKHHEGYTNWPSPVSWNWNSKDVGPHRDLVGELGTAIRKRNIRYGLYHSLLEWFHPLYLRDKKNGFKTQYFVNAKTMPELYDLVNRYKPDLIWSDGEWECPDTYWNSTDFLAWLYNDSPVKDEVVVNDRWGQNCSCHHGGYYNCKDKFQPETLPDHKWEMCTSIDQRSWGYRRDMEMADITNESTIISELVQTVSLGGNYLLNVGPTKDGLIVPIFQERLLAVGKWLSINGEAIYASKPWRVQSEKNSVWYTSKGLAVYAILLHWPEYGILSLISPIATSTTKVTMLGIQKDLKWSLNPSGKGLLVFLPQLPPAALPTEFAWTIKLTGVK
Method: The TLC plate was developed until the reaction solution front moved 2 cm (developing solvent; n-butanol:acetic acid:water=8:5:4). After immersion in phosphomolybdic acid.phosphoric acid.sulfonic acid mixed aqueous solution, the plate was heated to develop colors and the amount of the remaining substrate was measured.

[1] = tested on: acute pulmonary inflammation induced using a cobra venom factor; conditions: rats, Mulligan et al., Nature 364, 149 (1993); cited from earlier work
P-selectin = molecular target: T2, P-selectin (Homo sapiens, UniProt P16109); conditions: relative to sugar chain (3); cited from earlier work
T2 sequence (P16109 42-830): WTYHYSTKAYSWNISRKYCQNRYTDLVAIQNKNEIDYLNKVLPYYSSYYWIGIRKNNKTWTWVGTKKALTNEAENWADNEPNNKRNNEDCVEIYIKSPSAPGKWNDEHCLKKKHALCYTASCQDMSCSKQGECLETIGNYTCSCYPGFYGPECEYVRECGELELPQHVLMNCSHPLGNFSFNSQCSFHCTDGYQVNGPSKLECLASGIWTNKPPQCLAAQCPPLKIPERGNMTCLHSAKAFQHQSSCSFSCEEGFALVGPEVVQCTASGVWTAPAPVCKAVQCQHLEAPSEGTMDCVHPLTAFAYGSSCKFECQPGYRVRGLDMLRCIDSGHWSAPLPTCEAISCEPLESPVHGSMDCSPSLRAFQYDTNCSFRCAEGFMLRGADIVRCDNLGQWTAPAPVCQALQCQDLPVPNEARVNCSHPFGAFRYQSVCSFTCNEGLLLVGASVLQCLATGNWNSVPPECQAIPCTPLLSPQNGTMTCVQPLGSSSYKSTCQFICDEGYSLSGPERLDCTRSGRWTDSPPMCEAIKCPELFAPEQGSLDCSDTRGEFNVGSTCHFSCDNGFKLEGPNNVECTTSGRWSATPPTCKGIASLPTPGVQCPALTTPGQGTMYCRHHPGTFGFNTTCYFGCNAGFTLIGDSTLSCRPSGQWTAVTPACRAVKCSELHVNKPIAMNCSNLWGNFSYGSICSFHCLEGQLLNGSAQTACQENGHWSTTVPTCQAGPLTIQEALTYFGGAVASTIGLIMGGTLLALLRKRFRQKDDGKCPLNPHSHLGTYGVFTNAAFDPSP

CCCCCCCCCCCCCC=CC(O)C(COC1OC(CO)C(OC2OC(CO)C(O)C(OC3OC(CF)C(OC4OC(CO)C(O)C(OC5(C(=O)O)CC(O)C(NC(C)=O)C(C(O)C(O)CO)O5)C4O)C(OC4OC(C)C(O)C(O)C4O)C3NC(C)=O)C2O)C(O)C1O)NC(=O)CCCCCCCCCCCCCCCCC [Compound 24, O-(5-Acetamide-3,5-dideoxy-D-glycero-α-D-galacto-2-nonulopyranosylonic acid)-(2→3)-O-β-D-glucopyranosyl-(1→4)-O-[α-L-fucopyranosyl-(1→3)]-O-(2-acetamide-2,6-dideoxy-6-fluoro-β-D-galactopyranosyl)-(1→3)-O-β-D-galactopyranosyl)-(1→4)-β-D-glucopyranosyl-(1→1)(2S, 3R, 4E)-2-octadecaneamide-4-octadecene-1,3-diol]
stability against decomposition by α-fucosidase (in words) (α-fucosidase; in the presence of α-fucosidase): more strongly resists the decomposition by α-fucosidase than a natural Ganglioside | Remaining Syalyl Lewis X (%) (α-fucosidase; α-fucosidase, time 0 min): 100%

sialyl Lewis X sugar chain [sialyl Lewis X sugar chain (3)]
effect on acute pulmonary inflammation (in words) [1]: ameliorates acute pulmonary inflammation

1-deoxy sialyl Lewis X [sugar chain (4)]
inhibitory activity against P-selectin, times as potent as sugar chain (3) (P-selectin): about 20 times
